Source: US20250388568A1, “NLRP3 INHIBITORS” (Kodiak Sciences Inc., priority 2022, published 2025)

System: IL-1β release in U937 cells after NLRP3 activation
Test: IC50 determination of IL-1β release inhibition in U937 cells
Format: cell-based
Details: Homo sapiens, U-937; PMA-differentiated U937 cells, LPS priming 5 h, nigericin; average of at least three experiments; read-out: IL-1β IC50 (nM) U937 cells
Experimental: Example 79: IC50 Determination of IL-1β Release Inhibition in U937 Cells The compounds of the present disclosure were tested for their ability to inhibit the IL-1β release in the U937 cells after NLRP3 activation. U937 cells (U-97 CRL 1593.2) were thawed following ATCC's initial culture procedure. […] The growth medium was composed of RPMI1640 medium (Quality Biological 112-040-101), 10% serum (Corning 35-076-CV), Pen/Strep (GIBCO 15140-122), 10 mM Hepes (Quality Biological 118-089-721), 2 mM Glutamax (GIBCO 35050-061), and 100 μg/mL normocin (Invivogen ant-nr)-Differentiating media was prepared by adding Phorbol 12-myristate 13-acetate (PMA) (AdipoGen AG-CN2-0010-M005) to growth medium. A cell suspension was prepared with differentiating media at 500k cells/ml. With an electronic pipet, 200 ul of cell suspension was added to each well (96w white plate Corning 3903) leaving columns 1 and 2 empty. Plates were left in the biosafety cabinet for 15 min and then placed in incubator for 90 hours. Priming media was prepared with assay medium consisting of RPMI 1640 medium, 10 mM Hepes, 2 mM Glutamax and Pen/Strep plus 1 μg/mL LPS (Invivogen tlrl-3pelps). Differentiating media was manually removed and 80 ul of priming media was added to each well with an electronic pipet. The plates were placed in the incubator for 5 hours. […] DMSO). An hour prior to the end of LPS incubation, a separate 96 deep well plate, Plate B, was prepared with 400 μL of assay media per well, then […] of the stock DMSO solution from Plate A was added to each corresponding well. Plate B was covered to avoid media evaporation. In a 50 mL tube, a solution of nigericin in assay media at 50 uM/mL concentration was prepared. To a new 96 deep well plate, Plate C, 200 μL of this nigericin containing media was dispensed to each well and 1 μL of the test compounds from Plate B to each corresponding well was added. Plate C was covered to avoid media evaporation. After 5 hours of priming, all the media from the LPS treated U937 cells was removed manually. To this plate of primed cells, 80 μL/well test compounds from Plate B (assay media+compound) was added in duplicate columns (5 compounds tested per plate). The plate was placed in an incubator for 30 min. […] The plate was placed back in the incubator for 1 hour. At the end of 1 hour, the supernatant from this test plate was transferred to a new 96 well V bottom polypropylene plate which was frozen immediately at -80° C. The plate was transferred to -20° C. the next day and awaited further determination of cytokine IL-Ip level. The release of IL-1β into the cell media was determined by MSD® Multi-Spot Assay System (V-Plex, IL-1B kit, […]-4). Following the manufacture's protocol and using the Alternate Protocol 3, Dilute-In-Plate protocol specifically, the level of IL-IP in the above collected supernatant plate was measured as electrochemiluminescent signals. Using MSD DISCOVERY WORKBENCH® analysis software, the signals were converted to the concentration of IL-1β in each well. The IC50 values of the compounds were calculated using the Graph Pad Prism software based on the IL-1β concentration determined. The detection range of IL-1β using MSD kit was approximately […] (based on various lots of standards purchased from MSD).

| Compound | IC50 |
| --- | --- |
| N=S(=O)(NC(=O)Nc1c2c(cc3c1CCC3)CCC2)c1cc(CN2CC3(CC(O)C3)C2)co1 (stereo not drawn) [Example 2, N-((1,2,3,5,6,7-hexahydro-s-indacen-4-yl)carbamoyl)-4-((6-hydroxy-2-azaspiro[3.3]heptan-2-yl)methyl)furan-2-sulfonimidamide] | 50 to 500 nM |
| N=S(=O)(NC(=O)Nc1c2c(cc3c1CCC3)CCC2)c1cc(C(=O)N2CC3(CC(O)C3)C2)co1 (stereo not drawn) [Example 3, N-((1,2,3,5,6,7-hexahydro-s-indacen-4-yl)carbamoyl)-4-(6-hydroxy-2-azaspiro[3.3]heptane-2-carbonyl)furan-2-sulfonimidamide] | 50 to 500 nM |
| CN(C(=O)c1coc(S(=N)(=O)NC(=O)Nc2c3c(cc4c2CCC4)CCC3)c1)[C@H]1C[C@H](N)C1 (stereo partly drawn) [Example 16] | > 500 nM |
| CN(C(=O)c1coc(S(=N)(=O)NC(=O)Nc2c3c(cc4c2CCC4)CCC3)c1)C1CNC1 (stereo not drawn) [Example 17, N-(azetidin-3-yl)-5-(N-((1,2,3,5,6,7-hexahydro-s-indacen-4-yl)carbamoyl)sulfamidimidoyl)-N-methylfuran-3-carboxamide] | 50 to 500 nM |
| N=S(=O)(NC(=O)Nc1c2c(cc3c1CCC3)CCC2)c1cc(CO[C@H]2C[C@H](N)C2)co1 (stereo partly drawn) [Example 18, 4-(((1r,3r)-3-aminocyclobutoxy)methyl)-N-((1,2,3,5,6,7-hexahydro-s-indacen-4-yl)carbamoyl)furan-2-sulfonimidamide] | 5 to 50 nM |
| O=C(Nc1c2c(cc3c1CCC3)CCC2)NS(=O)(=O)c1cc(CN2CC(O)C2)co1 [Example 32, N-((1,2,3,5,6,7-hexahydro-s-indacen-4-yl)carbamoyl)-4-((3-hydroxyazetidin-1-yl)methyl)furan-2-sulfonamide] | 50 to 500 nM |
| Cc1cc(S(=O)(=O)NC(=O)Nc2c3c(c(F)c4c2CCC4)CCC3)oc1CN1C[C@H](O)[C@@H](F)C1 [Example 56, N-((8-fluoro-1,2,3,5,6,7-hexahydro-s-indacen-4-yl)carbamoyl)-5-(((3S,4S)-3-fluoro-4-hydroxypyrrolidin-1-yl)methyl)-4-methylfuran-2-sulfonamide] | 5 to 50 nM |
| CN(Cc1cc(S(=O)(=O)NC(=O)Nc2c3c(c(F)c4c2CCC4)CCC3)nn1C)CC1(CO)CCOCC1 [Example 64, N-((8-fluoro-1,2,3,5,6,7-hexahydro-S-indacen-4-yl)carbamoyl)-5-((((4-(hydroxymethyl)tetrahydro-2H-pyran-4-yl)methyl)(methyl)amino)methyl)-1-methyl-1H-pyrazole-3-sulfonamide] | 50 to 500 nM |
| CN(Cc1cc(S(=O)(=O)NC(=O)Nc2c3c(c(F)c4c2CCC4)CCC3)nn1C)CC1(CO)CCC1 [Example 65, N-((8-fluoro-1,2,3,5,6,7-hexahydro-s-indacen-4-yl)carbamoyl)-5-((((1-(hydroxymethyl)cyclobutyl)methyl)(methyl)amino)methyl)-1-methyl-1H-pyrazole-3-sulfonamide] | 5 to 50 nM |

Continued, values first:

| IC50 | Compound |
| --- | --- |
| 5 to 50 nM | CN(C(=O)c1coc(S(=N)(=O)NC(=O)Nc2c3c(cc4c2CCC4)CCC3)c1)[C@H]1C[C@H](O)C1 (stereo partly drawn) [Example 15, 5-(N-((1,2,3,5,6,7-hexahydro-s-indacen-4-yl)carbamoyl)sulfamidimidoyl)-N-((1r,3r)-3-hydroxycyclobutyl)-N-methylfuran-3-carboxamide] |
| 5 to 50 nM | N=S(=O)(NC(=O)Nc1c2c(cc3c1CCC3)CCC2)c1cc(CN)co1 (stereo not drawn) [Example 22, 4-(aminomethyl)-N-((1,2,3,5,6,7-hexahydro-s-indacen-4-yl)carbamoyl)furan-2-sulfonimidamide] |
| 5 to 50 nM | Cc1oc(S(=O)(=O)NC(=O)Nc2c3c(cc4c2CCC4)CCC3)cc1CN(C)CC1(CO)CCC1 [Example 34, N-((1,2,3,5,6,7-hexahydro-s-indacen-4-yl)carbamoyl)-4-((((1-(hydroxymethyl)cyclobutyl)methyl)(methyl)amino)methyl)-5-methylfuran-2-sulfonamide] |
| 5 to 50 nM | Cc1oc(S(=O)(=O)NC(=O)Nc2c3c(c(F)c4c2CCC4)CCC3)cc1CN1C[C@@H](F)[C@@H](O)C1 [Example 40, N-((8-fluoro-1,2,3,5,6,7-hexahydro-s-indacen-4-yl)carbamoyl)-4-(((3R,4S)-3-fluoro-4-hydroxypyrrolidin-1-yl)methyl)-5-methylfuran-2-sulfonamide] |
| 5 to 50 nM | Cc1oc(S(=O)(=O)NC(=O)Nc2c3c(c(F)c4c2CCC4)CCC3)cc1CN(C)CC1(CO)CCOCC1 [Example 46, N-((8-fluoro-1,2,3,5,6,7-hexahydro-s-indacen-4-yl)carbamoyl)-4-((((4-(hydroxymethyl)tetrahydro-2H-pyran-4-yl)methyl)(methyl)amino)methyl)-5-methylfuran-2-sulfonamide] |
| 5 to 50 nM | Cc1oc(S(=O)(=O)NC(=O)Nc2c3c(c(F)c4c2CCC4)CCC3)cc1CN(C)CC1(CO)CCC1 [Example 47, N-((8-fluoro-1,2,3,5,6,7-hexahydro-s-indacen-4-yl)carbamoyl)-4-((((1-(hydroxymethyl)cyclobutyl)methyl)(methyl)amino)methyl)-5-methylfuran-2-sulfonamide] |
| 5 to 50 nM | Cc1oc(S(=O)(=O)NC(=O)Nc2c3c(c(Cl)c4c2CCC4)CCC3)cc1CN1CC[C@H](O)C1 [Example 49, (S)—N-((8-chloro-1,2,3,5,6,7-hexahydro-s-indacen-4-yl)carbamoyl)-4-((3-hydroxypyrrolidin-1-yl)methyl)-5-methylfuran-2-sulfonamide] |
| 5 to 50 nM | Cc1cc(S(=O)(=O)NC(=O)Nc2c3c(c(F)c4c2CCC4)CCC3)oc1CN1CC[C@@H](O)C1 [Example 52, (R)-N-((8-fluoro-1,2,3,5,6,7-hexahydro-s-indacen-4-yl)carbamoyl)-5-((3-hydroxypyrrolidin-1-yl)methyl)-4-methylfuran-2-sulfonamide] |
| 5 to 50 nM | Cc1cc(S(=O)(=O)NC(=O)Nc2c3c(c(F)c4c2CCC4)CCC3)oc1CN1C[C@@H](O)[C@@H](F)C1 [Example 53, N-((8-fluoro-1,2,3,5,6,7-hexahydro-s-indacen-4-yl)carbamoyl)-5-(((38,4R)-3-fluoro-4-hydroxypyrrolidin-1-yl)methyl)-4-methylfuran-2-sulfonamide] |
| < 5 nM | Cc1cc(S(=O)(=O)NC(=O)Nc2c3c(c(F)c4c2CCC4)CCC3)oc1CN1C[C@@H](O)[C@H](F)C1 [Example 54, N-((8-fluoro-1,2,3,5,6,7-hexahydro-s-indacen-4-yl)carbamoyl)-5-(((3R,4R)-3-fluoro-4-hydroxypyrrolidin-1-yl)methyl)-4-methylfuran-2-sulfonamide] |
| 5 to 50 nM | Cc1cc(S(=O)(=O)NC(=O)Nc2c3c(c(F)c4c2CCC4)CCC3)oc1CN1C[C@@H](F)[C@@H](O)C1 [Example 55, N-((8-fluoro-1,2,3,5,6,7-hexahydro-s-indacen-4-yl)carbamoyl)-5-(((3R,4S)-3-fluoro-4-hydroxypyrrolidin-1-yl)methyl)-4-methylfuran-2-sulfonamide] |
| < 5 nM | CC(C)n1nc(S(=O)(=O)NC(=O)Nc2c3c(c(F)c4c2CCC4)CCC3)cc1CN(C)CC1(O)CCC1 [Example 66, N-((8-fluoro-1,2,3,5,6,7-hexahydro-s-indacen-4-yl)carbamoyl)-5-((((1-hydroxycyclobutyl)methyl)(methyl)amino)methyl)-1-isopropyl-1H-pyrazole-3-sulfonamide] |
